In patent publication US20130072459A1, “PHARMACEUTICAL COMPOSITION FOR THE PREVENTION OR THE TREATMENT OF NON-ALCOHOLIC FATTY LIVER DISEASE AND THE METHOD FOR PREVENTION OR TREATMENT OF NON-ALCOHOLIC FATTY LIVER DISEASE USING THE SAME” (priority 2010, published 2013):

System: high fat diet-induced simple steatosis
Experiment: Therapeutic effects on high fat diet-induced simple steatosis in rats
Format: in vivo, Wistar rats
Experimental: 6-week old male rats (Wistar rats) were stabilized and then divided into 2 groups. Animal groups were respectively given a standard diet containing 10% fat (trade name: D12450B, manufactured by Research Diets) and a high fat diet containing 60% fat (trade name: D12492, manufactured by Research Diets) for 24 weeks. […] In order to supply 10 mg/kg which is a daily target dose of tartrate of Compound 1, a diet was formulated by mixing a high fat diet and 0.03% by weight of tartrate of Compound 1. 24 weeks after a supply of each diet, animals were divided into a high fat diet-fed group (n=8), a group fed with a high fat diet+0.03% by weight of tartrate of Compound 1 (n=8), and a standard diet-fed group (n=8), followed by feeding for another 14 weeks. Then, animals were dissected and sera were separated. Then, serum ALT levels (alanine aminotransferase), GPT, (glutamic pyruvate transaminase) were measured using a blood analyzer (FIG. 4). The excised liver was homogenized in a 5(v/v) % Triton-X solution, and a triglyceride working reagent [which was prepared by mixing a free glycerol reagent (F6428, Sigma) and a triglyceride reagent (T2449, Sigma) in a ratio of 4:1(v/v)] was added thereto, followed by measurement of an absorbance at 540 nm to determine the content of triglyceride (FIG. 5). In addition, in order to observe histological fat distribution, a portion of the excised liver was fixed in a 10(v/v) % formalin solution and then a tissue sample was prepared, followed by hematoxylin & eosin(HE) staining and photographing using an image analysis program (computerized image analysis) (FIG. 6, the violet-stained portion represents a normal liver tissue, and white portion represents lipid droplets). Thereafter, an area of lipid droplets/unit area of a sample was calculated (FIG. 7).

[1] = high fat diet + 0.03% drug for 14 weeks, vs high fat diet-fed group

CC(C)(C)OC[C@@H]1C(=O)NCCN1C(=O)C[C@H](N)Cc1cc(F)c(F)cc1F [tartrate of Compound 1, (R)-4-[(R)-3-amino-4-(2,4,5-trifluorophenyl)-butanoyl]-3-(t-butoxymethyl)piperazin-2-one]
significant decrease: serum alanine aminotransferase (ALT), result in words (high fat diet 24 weeks then high fat diet + 0.03% drug (target 10 mg/kg/day) for 14 weeks) | hepatic triglyceride content in hepatic triglyceride analysis, result in words [1] | hepatic triglyceride content in histological analysis (area of lipid droplets/unit area), result in words [1]
